This is an account of results in patent US10703756B2, “Pyrrolo[2,3-D]pyrimidinyl, pyrrolo[2,3-B]pyrazinyl, pyrrolo[2,3-B]pyridinyl acrylamides and epoxides thereof” (Pfizer Inc., priority 2015, dated 2020).

The structures appear in SMILES notation. Like-named read-outs stand apart in the source and are kept apart here.

Data set [1] has as its target T1, JAK3 enzyme (Homo sapiens, UniProt P52333).
T1 sequence (P52333 1-1124): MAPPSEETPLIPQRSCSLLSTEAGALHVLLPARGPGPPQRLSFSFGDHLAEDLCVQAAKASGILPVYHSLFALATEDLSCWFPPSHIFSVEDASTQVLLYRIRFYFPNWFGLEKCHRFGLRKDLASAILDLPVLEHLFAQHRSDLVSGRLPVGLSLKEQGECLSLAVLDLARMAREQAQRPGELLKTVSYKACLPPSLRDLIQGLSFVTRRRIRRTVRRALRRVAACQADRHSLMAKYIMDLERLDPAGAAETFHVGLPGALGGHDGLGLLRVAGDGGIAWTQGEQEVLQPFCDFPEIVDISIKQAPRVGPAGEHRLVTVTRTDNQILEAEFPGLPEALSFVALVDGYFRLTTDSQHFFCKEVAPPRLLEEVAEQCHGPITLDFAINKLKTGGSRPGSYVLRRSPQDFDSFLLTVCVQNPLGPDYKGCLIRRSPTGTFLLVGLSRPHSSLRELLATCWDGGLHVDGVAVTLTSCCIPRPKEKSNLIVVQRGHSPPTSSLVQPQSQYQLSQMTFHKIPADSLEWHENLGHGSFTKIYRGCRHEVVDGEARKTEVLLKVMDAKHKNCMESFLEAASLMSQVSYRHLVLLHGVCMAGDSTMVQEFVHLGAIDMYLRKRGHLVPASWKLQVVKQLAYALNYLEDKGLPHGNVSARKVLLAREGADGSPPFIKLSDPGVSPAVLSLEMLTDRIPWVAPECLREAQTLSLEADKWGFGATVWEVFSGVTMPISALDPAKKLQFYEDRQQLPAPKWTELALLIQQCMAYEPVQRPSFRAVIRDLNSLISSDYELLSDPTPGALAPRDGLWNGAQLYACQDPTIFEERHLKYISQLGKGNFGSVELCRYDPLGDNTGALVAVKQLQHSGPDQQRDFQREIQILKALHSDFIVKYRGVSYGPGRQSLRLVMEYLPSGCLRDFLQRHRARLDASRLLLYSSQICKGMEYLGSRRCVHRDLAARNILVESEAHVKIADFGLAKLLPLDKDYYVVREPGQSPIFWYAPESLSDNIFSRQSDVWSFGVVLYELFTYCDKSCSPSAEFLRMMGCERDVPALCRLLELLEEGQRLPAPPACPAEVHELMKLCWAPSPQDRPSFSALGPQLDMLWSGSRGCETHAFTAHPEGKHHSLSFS
The experiment in a line: JAK Caliper Enzyme Assay at 4 μM ATP. The data set is classed as biochemical. The procedure, abridged: (§1)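 Compound tested as 11-point half-log DMSO dilution series (top 600 μM in DMSO, a dilution-plate level). Enzyme level and time set for 20%-30% peptide phosphorylation; phosphorylated and unphosphorylated peptide separated and quantified by Caliper LC3000 mobility shift.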

Data set [2] concerns the target T1, JAK3 enzyme. The experiment in a line: JAK Caliper Enzyme Assay at 1 mM ATP. The data set is classed as biochemical. The procedure, abridged: as §1
Data set [3] is described as follows: Stability of JAK3 Covalent Inhibitors in Human Whole Blood. The data set is classed as in vitro ADME. The settings on record: 1 μM test compound, 37° C., 180 min incubation; for half-life at 1 μM: both sexes, read-out: Human blood stability t1/2. As for the experimental part: Stability of JAK3 Covalent Inhibitors in Rat and Human Whole Blood
Rat blood was collected from 3 male Sprague-Dawley rats (200-250 g, Charles River Laboratories) and pooled for each study. Human blood was collected from healthy subjects at the Occupational Health & Wellness Center at Pfizer, Groton, Conn. and pooled for each study. Both rat and human blood was collected freshly into K2-EDTA tubes and kept on ice. An aliquot of the blood was transferred to microtubes and pre-warmed for 10 min at 37° C. using a heat block. The test compound was then added (1 μM final concentration) and the incubation was continued for 180 min at 37° C. in duplicates. An aliquot of the incubation mixture was removed at designated time points during the course of the incubation, mixed with an aliquot of acetonitrile containing an internal standard, vortexed and centrifuged. The resulting supernatants were removed and subjected to LC-MS/MS analyses to determine parent compound concentrations. Peak area ratios of the parent compound vs the internal standard were used to determine the % of parent compound remaining vs incubation time.

Data set [4] has as its system IL-15 induced P-STAT5 in human PBMC. Briefly: PBMC IL-15 Induced P-STAT5. The data set is classed as cell-based. In a few lines: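 Thawed human PBMC, rested in human plasma, were preincubated 15 min at 37 °C with compound (0.2% DMSO), then stimulated 15 min with IL-15 at 41 ng/mL final. After paraformaldehyde fixation and methanol permeabilisation, Alexa Fluor 647 anti-STAT5 staining overnight at 4 °C was analysed by flow cytometry on total lymphocytes.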

Setting [5] is: human PBMC, IL-15 final 41 ng/mL, read-out: PBMC IL15_pSTAT5_IC50.

As for `C=CC(=O)N1CC[C@H](Oc2cnc3[nH]cc(C(=O)N[C@@H](C)COC)c3n2)C[C@H]1C` (single isomer, unassigned) [Example 72], the values for the IC50 (against JAK3 enzyme [1]; against JAK3 enzyme [2]; in data set [4] (setting [5])) were 1.13 nM, 80 nM and 415 nM, respectively. Also, the half-life at 1 μM in data set [3] came out at 2.77 h.

As to `C=CC(=O)N1CC[C@H](CNc2cnc3[nH]cc(C(=O)N[C@@H](C)COC)c3n2)C1` (single isomer, unassigned) [Example 18], the IC50 was 0.491 nM on JAK3 enzyme [1], 96 nM against JAK3 enzyme [2] and 5990 nM in data set [4] (setting [5]). Besides, the half-life at 1 μM in data set [3] is above 6 h.

As to `C=CC(=O)N1C[C@H](Nc2cnc3[nH]cc(C(=O)N[C@H](C)COC)c3n2)CC[C@@H]1C` (single isomer, unassigned) [Example 69], the IC50 was determined as 0.782 nM on JAK3 enzyme [1], 137 nM against JAK3 enzyme [2] and 2610 nM in data set [4] (setting [5]). The half-life at 1 μM in data set [3] was above 6 h.

Take `C=CC(=O)N1C[C@@H](Nc2cnc3[nH]cc(C(=O)N[C@H](C)COC)c3n2)CC[C@H]1C` (racemic) [Example 68, Cis-racemic-2-{[1-acryloyl-6-methylpiperidin-3-yl]amino}-N-[(2R)-1-methoxypropan-2-yl]-5H-pyrrolo[2,3-b]pyrazine-7-carboxamide]: the IC50 at JAK3 enzyme [1] was 2.17 nM; on JAK3 enzyme [2], 247 nM; in data set [4] (setting [5]), 4570 nM. Besides, the half-life at 1 μM in data set [3] is above 6 h.

As to `C=CC(=O)N1CCCC(Nc2cnc3[nH]cc(C(=O)NCC)c3n2)C1` (racemic) [Example 34, Racemic-2-[(1-acryloylpiperidin-3-yl)amino]-N-ethyl-5H-pyrrolo[2,3-b]pyrazine-7-carboxamide], the IC50 was determined as 0.501 nM at JAK3 enzyme [1], 105 nM at JAK3 enzyme [2] and 580 nM in data set [4] (setting [5]). The half-life at 1 μM in data set [3] is above 6 h.

On to `C=CC(=O)N1CCC(Nc2cnc3[nH]cc(C(=O)NCC(C)C)c3n2)C1` (stereo in doubt) [Example 256, 2-{[(3S)-1-acryloylpyrrolidin-3-yl]amino}-N-(2-methylpropyl)-5H-pyrrolo[2,3-b]pyrazine-7-carboxamide], for which the IC50 came to 0.124 nM against JAK3 enzyme [1], 23 nM at JAK3 enzyme [2] and 531 nM in data set [4] (setting [5]). Further, the half-life at 1 μM in data set [3] is 4.58 h.

In the case of `C=CC(=O)N1C[C@@H](Oc2cnc3[nH]cc(C(=O)N[C@@H](C)COC)c3n2)CC[C@H]1C` (racemic) [Example 80, Cis-racemic-2-{[1-acryloyl-6-methylpiperidin-3-yl]oxy}-N-[(2S)-1-methoxypropan-2-yl]-5H-pyrrolo[2,3-b]pyrazine-7-carboxamide], the IC50 against JAK3 enzyme [1] came to 1.32 nM; against JAK3 enzyme [2] it was 160 nM; in data set [4] (setting [5]), 829 nM. Besides, the half-life at 1 μM in data set [3] stood at 4.8 h.

For `C=CC(=O)N1CC[C@H](Nc2cnc3[nH]cc(C(=O)NCC)c3n2)[C@H](C)C1` (single isomer, unassigned) [Example 39], the values for the IC50 (against JAK3 enzyme [1]; on JAK3 enzyme [2]; in data set [4] (setting [5])) were 1.01 nM, 202 nM and 2380 nM, respectively. The half-life at 1 μM in data set [3] is above 6 h.

Consider `C=CC(=O)N1C[C@@H](Nc2cnc3[nH]cc(C(=O)N[C@@H](C)COC)c3n2)CC[C@H]1C` (racemic) [Example 65, Cis-racemic-2-{[1-acryloyl-6-methylpiperidin-3-yl]amino}-N-[(2S)-1-methoxypropan-2-yl]-5H-pyrrolo[2,3-b]pyrazine-7-carboxamide], for which the IC50 is 1.02 nM against JAK3 enzyme [1], 53 nM against JAK3 enzyme [2] and 585 nM in data set [4] (setting [5]). Further, in data set [3], the half-life at 1 μM was above 6 h.

Turning to `C=CC(=O)N1C[C@@H](COCCC#N)C[C@@H](Nc2ncnc3[nH]ccc23)C1` (single isomer, unassigned) [Example 100], the IC50 on JAK3 enzyme [1] is 76.3 nM; at JAK3 enzyme [2], 2660 nM; in data set [4] (setting [5]), above 10000 nM. In data set [3], the “Human blood stability t1/2” value worked out at 3.52 h.

On to `C=CC(=O)N1CC[C@H](Nc2cnc3[nH]cc(C(=O)NCC)c3n2)[C@@H](C)C1` (single isomer, unassigned) [Example 45], for which the IC50 against JAK3 enzyme [1] worked out at 0.39 nM; against JAK3 enzyme [2], 57 nM; in data set [4] (setting [5]), 460 nM. In addition, the half-life at 1 μM in data set [3] worked out at 3.37 h.

Regarding `C=CC(=O)N1CC[C@H](Oc2cnc3[nH]cc(C(=O)NCC)c3n2)C[C@H]1C` (single isomer, unassigned) [Example 78], the IC50 on JAK3 enzyme [1] is 1.83 nM; on JAK3 enzyme [2], 314 nM; in data set [4] (setting [5]), 935 nM. The half-life at 1 μM in data set [3] was above 6 h.

Take `C=CC(=O)N1CCC(Oc2cnc3[nH]cc(-c4ncnn4C(C)C)c3n2)CC1` [Example 123]: the figures for the IC50 (at JAK3 enzyme [1]; at JAK3 enzyme [2]; in data set [4] (setting [5])) were 7.65 nM, 1100 nM and 3040 nM, respectively. Besides, the half-life at 1 μM in data set [3] was found to be 2.45 h.

Regarding `C=CC(=O)N1C[C@@H](Nc2ncnc3[nH]ccc23)CC[C@@H]1[C@@H](C)O` (single isomer, unassigned) [Example 111], the IC50 at JAK3 enzyme [1] is 0.858 nM; at JAK3 enzyme [2] it was 77 nM; in data set [4] (setting [5]), 537 nM. The half-life at 1 μM in data set [3] is 2.87 h.

As to `C=CC(=O)N1CCC[C@H](Oc2cnc3[nH]cc(C(=O)N[C@@H](C)COC)c3n2)C1` [Example 50, 2-{[(3S)-1-acryloylpiperidin-3-yl]oxy}-N-[(2S)-1-methoxypropan-2-yl]-5H-pyrrolo[2,3-b]pyrazine-7-carboxamide], the results for the IC50 (on JAK3 enzyme [1]; against JAK3 enzyme [2]; in data set [4] (setting [5])) were 1.09 nM, 91 nM and 431 nM, respectively. In addition, the half-life at 1 μM in data set [3] was above 6 h.

`C=CC(=O)N1CC[C@@H](Nc2cnc3[nH]cc(C(=O)NCC)c3n2)[C@H](O)C1` (single isomer, unassigned) [Example 33]: the IC50 against JAK3 enzyme [1] worked out at 0.23 nM; on JAK3 enzyme [2], 34 nM; in data set [4] (setting [5]), 2810 nM. In addition, in data set [3], the half-life at 1 μM was found to be 3.47 h.

In the case of `C=CC(=O)N1C[C@@H](Nc2cnc3[nH]cc(C(=O)N[C@@H](C)COC)c3n2)CC[C@H]1C` (single isomer, unassigned) [Example 67], the IC50 at JAK3 enzyme [1] stood at 0.511 nM; on JAK3 enzyme [2], 25 nM; in data set [4] (setting [5]), 439 nM. Further, the half-life at 1 μM in data set [3] is above 6 h.

`C=CC(=O)N1C[C@@H](Nc2cnc3[nH]cc(C(=O)NCC)c3n2)CC[C@H]1C` (racemic) [Example 74, Cis-racemic-2-{[1-acryloyl-6-methylpiperidin-3-yl]amino}-N-ethyl-5H-pyrrolo[2,3-b]pyrazine-7-carboxamide]: the IC50 was 0.995 nM against JAK3 enzyme [1], 177 nM against JAK3 enzyme [2] and 1180 nM in data set [4] (setting [5]). In addition, the half-life at 1 μM in data set [3] was above 6 h.

Regarding `C=CC(=O)N1CC[C@H](Nc2cnc3[nH]cc(C(=O)N[C@H](C)COC)c3n2)C[C@@H]1C` (single isomer, unassigned) [Example 57], the IC50 worked out at 4.45 nM on JAK3 enzyme [1]; 241 nM on JAK3 enzyme [2]; 3220 nM in data set [4] (Homo sapiens, PBMC, read-out: PBMC IL15_pSTAT5_IC50 (nM)). Moreover, the half-life at 1 μM in data set [3] is above 6 h.
